Measurements from paper PMC5286421, “Interactions of retinoids with the ABC transporters P-glycoprotein and Breast Cancer Resistance Protein” (Scientific Reports, 2017).
Like-named read-outs stand apart in the source and are kept apart here.

Legend:
[1] = ref PubChem Compound Database (CID); cited from earlier work
[2] = tested on: NIH 3T3 / NIH 3T3 MDR1 and MDCK / MDCK ABCG2 cells; assay: TMA-DPH steady-state fluorescence anisotropy (membrane fluidity); conditions: retinoids 100 μM, cyclosporin 10 μM, Ko143 2 μM; 10 min 37 °C
[3] = tested on: NIH 3T3 / NIH 3T3 MDR1 and MDCK / MDCK ABCG2 cells; assay: DPH steady-state fluorescence anisotropy (membrane fluidity); conditions: retinoids 100 μM; for Effect on DPH fluorescence anisotropy: cyclosporin 10 μM, Ko143 2 μM, 10 min 37 °C, all tested cell lines
ABCG2 [4] = biological target: T1, ABCG2 (Homo sapiens, UniProt Q9UNQ0); assay: Mitoxantrone accumulation test (ABCG2 transport activity) in MDCK ABCG2 cells; conditions: 20 min pre-treatment 37 °C, 5 μM mitoxantrone 40 min
T1 sequence (Q9UNQ0 1-655): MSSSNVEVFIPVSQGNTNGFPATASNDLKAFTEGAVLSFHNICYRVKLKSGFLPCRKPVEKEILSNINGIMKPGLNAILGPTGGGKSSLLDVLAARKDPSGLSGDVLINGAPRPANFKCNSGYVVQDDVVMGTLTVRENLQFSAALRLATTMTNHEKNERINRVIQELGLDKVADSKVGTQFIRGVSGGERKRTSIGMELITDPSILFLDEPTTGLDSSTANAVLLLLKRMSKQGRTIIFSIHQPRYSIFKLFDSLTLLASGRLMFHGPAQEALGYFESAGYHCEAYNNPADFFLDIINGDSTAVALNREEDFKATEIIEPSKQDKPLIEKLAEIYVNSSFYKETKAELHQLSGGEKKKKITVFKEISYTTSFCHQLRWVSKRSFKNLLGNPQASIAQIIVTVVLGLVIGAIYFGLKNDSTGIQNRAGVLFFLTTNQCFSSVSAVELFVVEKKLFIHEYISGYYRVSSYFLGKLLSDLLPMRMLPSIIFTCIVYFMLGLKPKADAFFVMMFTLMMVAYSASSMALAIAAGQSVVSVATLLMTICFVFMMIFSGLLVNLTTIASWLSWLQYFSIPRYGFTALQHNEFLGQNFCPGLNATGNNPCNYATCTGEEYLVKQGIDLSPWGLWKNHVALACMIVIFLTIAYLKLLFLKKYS
Protocol: (§2) Calcein-AM was applied to measure the transport activity of Pgp[51], while ABCG2 mediated transport was measured in mitoxantrone accumulation tests[18]. Cells were harvested and washed three times in PBS containing 7 mM glucose (gl-PBS). […] Dead cells were excluded from the analysis on the basis of propidium iodide (PI) staining.
(§3) Flow cytometric analysis was carried out on a Becton Dickinson FACSAria III Cell Sorter (Becton Dickinson, Mountain View, CA, USA). Calcein was excited by the 488 nm line of a solid state laser and the emitted light was detected using a 502 nm dichroic mirror and a 530/30 nm band-pass filter. […] AlexaFluor647 and mitoxantrone signals were detected with a 633 nm excitation laser and a 660/20 nm band-pass filter.

Pgp [5] = biological target: T2, Pgp (Homo sapiens, UniProt P08183); conditions: Sf9 membranes, Fig. 2c
Protocol: (§4) For ATPase activity measurements we used membrane samples derived from Sf9 (Spodoptera frugiperda) insect ovarian cells expressing human Pgp or ABCG2. cDNAs of the transporters were cloned into recombinant baculovirus transfer vectors, the Sf9 insect ovarian cells were cultured, and infected with the baculoviruses as described in ref. [52]. Sf9 cells overexpressing human Pgp and ABCG2 were harvested and cell membranes were isolated. The protein concentration of the membrane samples were determined by the Lowry method[53]. The ABCG2 expressing Sf9 membrane samples were loaded with cholesterol by cholesterol-methyl-beta-cyclodextrine complex in order to obtain high specific ATPase activity of the transporter[54]. Membrane samples were stored at −80 °C. The transporter expression of the membrane samples (5 μg membrane protein/slot) was routinely checked by immunoblot using the G-1 mAb (for Pgp) or BXP-21 mAb (for ABCG2) and a goat anti-mouse HRP-conjugated IgG secondary antibody. Both primary and secondary antibodies were from Santa Cruz Biotechnology Inc. (CA, USA) and applied at 1:5,000 dilution.
(§5) The vanadate-sensitive ATPase activity of Pgp and ABCG2 was determined by a colorimetric assay described in refs [32],[55]. Specific ATPase activity of the transporters was calculated from the amount of released inorganic phosphate. […] The absorbance of the samples was measured at 700 nm using a BioTek Synergy HT plate reader (BioTek Instruments, Winooski, USA).

Pgp [6] = biological target: T2, Pgp; assay: Calcein accumulation test (Pgp transport activity) in NIH 3T3 MDR1 cells; conditions: 20 min pre-treatment 37 °C, 500 nM calcein-AM 20 min
Protocol: as §2, §3

[7] = tested on: Pgp- and ABCG2-negative NIH 3T3 and MDCK cells; assay: Calcein and mitoxantrone accumulation in transporter negative cells; format: cell-based, mouse / canine; conditions: NIH 3T3 (calcein) and MDCK (mitoxantrone), Supplementary Fig. S1, 50 µM
Protocol: Supplementary Fig. S1: Effect of retinoid derivatives on the calcein (a) and
mitoxantrone (c) accumulation and viability (b, d) of Pgp- and ABCG2-negative NIH
3T3 and MDCK cells. Cells were pre-treated with retinoids added at 50 µM concentration
Cell viability was determined on the basis of propidium iodide exclusion.
(§1) (1 picture or pasted object on this page, not shown here)

ABCG2 [8] = biological target: T1, ABCG2; assay: Vanadate-sensitive ATPase activity of ABCG2 in Sf9 membrane preparations; format: biochemical; conditions: cholesterol-loaded Sf9 membranes, mean ± SEM, n=3
Protocol: For ATPase activity measurements we used membrane samples derived from Sf9 (Spodoptera frugiperda) insect ovarian cells expressing human Pgp or ABCG2. cDNAs of the transporters were cloned into recombinant baculovirus transfer vectors, the Sf9 insect ovarian cells were cultured, and infected with the baculoviruses as described in ref. [52]. Sf9 cells overexpressing human Pgp and ABCG2 were harvested and cell membranes were isolated. The protein concentration of the membrane samples were determined by the Lowry method. The ABCG2 expressing Sf9 membrane samples were loaded with cholesterol by cholesterol-methyl-beta-cyclodextrine complex in order to obtain high specific ATPase activity of the transporter. Membrane samples were stored at −80 °C. The transporter expression of the membrane samples (5 μg membrane protein/slot) was routinely checked by immunoblot using the G-1 mAb (for Pgp) or BXP-21 mAb (for ABCG2) and a goat anti-mouse HRP-conjugated IgG secondary antibody. Both primary and secondary antibodies were from Santa Cruz Biotechnology Inc. (CA, USA) and applied at 1:5,000 dilution.
The vanadate-sensitive ATPase activity of Pgp and ABCG2 was determined by a colorimetric assay described in refs [32],[55]. Specific ATPase activity of the transporters was calculated from the amount of released inorganic phosphate. […]. The absorbance of the samples was measured at 700 nm using a BioTek Synergy HT plate reader (BioTek Instruments, Winooski, USA).
The half-inhibitory doses (IC50) of retinoids were determined by fitting the dose-response relationships with a four parameter sigmoidal curve, where Amax and Amin are the ATPase activities measured at zero and at infinitely high inhibitor concentrations, respectively, n is the Hill coefficient and x is the concentration of the inhibitor:
Upon studying the kinetics of inhibition of the substrate-stimulated ATPase activity by retinoids data points were fitted with a modified form of the Michaelis-Menten equation[56] which includes the Hill coefficient, n: […]
v0 is the basal ATPase activity measured in the absence of the stimulatory substrate, while vmax is the maximal extent of ATPase stimulation and KM is the Michaelis constant (i.e. the substrate concentration at which the reaction rate is half of vmax).

[9] = biological target: P-gp (human Pgp), basal vanadate-sensitive ATPase activity (Homo sapiens, UniProt P08183); assay: in vitro; conditions: membranes of Sf9 insect cells expressing human Pgp, IC50 values, 10 min pre-incubation 37 °C, 3 mM ATP/Mg2+ 25 min, mean ± SEM, n=3
Protocol: as §4, §5

[10] = tested on: Pgp-positive and Pgp-negative NIH 3T3 cells; assay: AlamarBlue in vitro cytotoxicity assay; format: cell-based, mouse; conditions: 72 h, NIH 3T3 and NIH 3T3 MDR1, Supplementary Fig. S3
Protocol: Supplementary Fig. S3: Cytotoxic effect of retinyl-acetate on Pgp-positive and Pgp-negative NIH 3T3 cells. The AlamarBlue (Serotec, UK) based in vitro cytotoxicity assay was performed as previously described 1. Cells were seeded in 96-well plates at a cell density of 5 × 10^3 cells/well. 24 hours later retinyl-acetate was added at different concentrations and the plates were further incubated for 72 h at 37 °C. The cell viability was determined measuring the 530/590 nm fluorescence intensity of the dye in an automated microplate reader (BioTec Synergy HT, US). The AlamarBlue fluorescence intensity of the samples was normalized to the fluorescence of the retinyl-acetate untreated samples, and plotted as a function of retinyl-acetate concentration. The data points are means of eight parallel samples (±SD).
as §1

Pgp [11] = biological target: T2, Pgp; assay: biochemical; conditions: IC50 values, Pgp stimulated (verapamil-stimulated) ATPase activity, 40 μM verapamil; Sf9 membranes; mean ± SEM, n=3
Protocol: as §4, §5

T2 sequence (P08183 whole entry): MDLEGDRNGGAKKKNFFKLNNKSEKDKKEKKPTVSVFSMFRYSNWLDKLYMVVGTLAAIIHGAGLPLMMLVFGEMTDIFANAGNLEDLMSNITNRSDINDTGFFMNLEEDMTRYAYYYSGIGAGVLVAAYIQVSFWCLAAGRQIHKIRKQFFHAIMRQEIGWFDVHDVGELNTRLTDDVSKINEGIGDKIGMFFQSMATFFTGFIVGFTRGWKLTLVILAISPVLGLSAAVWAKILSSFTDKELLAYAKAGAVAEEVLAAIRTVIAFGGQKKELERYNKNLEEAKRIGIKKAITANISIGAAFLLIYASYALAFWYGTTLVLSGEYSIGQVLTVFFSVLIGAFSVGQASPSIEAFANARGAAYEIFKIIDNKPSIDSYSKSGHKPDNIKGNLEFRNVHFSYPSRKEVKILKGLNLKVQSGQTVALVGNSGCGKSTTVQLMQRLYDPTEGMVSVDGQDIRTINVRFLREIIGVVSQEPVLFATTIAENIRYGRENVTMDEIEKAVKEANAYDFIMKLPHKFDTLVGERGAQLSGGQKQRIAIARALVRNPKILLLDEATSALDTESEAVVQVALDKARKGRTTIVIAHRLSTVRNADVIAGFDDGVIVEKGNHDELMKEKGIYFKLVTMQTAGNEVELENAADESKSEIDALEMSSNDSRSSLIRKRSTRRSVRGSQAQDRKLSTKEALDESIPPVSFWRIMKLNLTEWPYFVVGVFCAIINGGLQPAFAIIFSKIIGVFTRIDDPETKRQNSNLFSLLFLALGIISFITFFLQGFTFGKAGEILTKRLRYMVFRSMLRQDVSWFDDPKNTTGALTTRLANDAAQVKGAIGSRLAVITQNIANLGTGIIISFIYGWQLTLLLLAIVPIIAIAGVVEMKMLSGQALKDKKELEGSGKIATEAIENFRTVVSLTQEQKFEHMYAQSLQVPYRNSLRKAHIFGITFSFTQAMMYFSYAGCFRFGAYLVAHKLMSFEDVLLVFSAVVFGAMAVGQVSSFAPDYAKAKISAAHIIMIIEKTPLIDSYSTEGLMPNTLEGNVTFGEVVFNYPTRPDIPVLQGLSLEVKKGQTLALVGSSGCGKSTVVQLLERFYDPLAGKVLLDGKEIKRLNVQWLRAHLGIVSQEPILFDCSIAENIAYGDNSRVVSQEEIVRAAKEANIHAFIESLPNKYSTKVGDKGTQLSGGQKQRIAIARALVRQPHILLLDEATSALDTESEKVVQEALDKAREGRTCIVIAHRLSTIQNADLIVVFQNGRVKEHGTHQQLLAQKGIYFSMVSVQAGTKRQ
P-gp (human Pgp), basal vanadate-sensitive ATPase activity, sequence (P08183 whole entry): as above

Effect on the basal ATPase activity of Pgp (Pgp [5]) | IC50 (ABCG2 [8]; 10 μM quercetin, read-out: IC50 values, ABCG2 stimulated (quercetin-stimulated) ATPase activity) | IC50 (ABCG2 [8]; read-out: IC50 values, ABCG2 basal ATPase activity) | IC50 at 25 min [9] | IC50 (Pgp [11]) | SMILES | LogP (octanol-water partition coefficient, LogPow) [1] | Effect on TMA-DPH fluorescence anisotropy [2] | Effect on DPH fluorescence anisotropy [3] | Effect on mitoxantrone accumulation of ABCG2 expressing cells (ABCG2 transport activity) (ABCG2 [4]) | Effect on calcein accumulation of Pgp expressing cells (Pgp transport activity) (Pgp [6]) | Effect on substrate accumulation of transporter negative cells [7] | Cytotoxicity profile in Pgp+ versus Pgp− cells [10] | Effect on DPH anisotropy in transporter expressing compared to non-expressing cells ([3]; Pgp+ vs Pgp− NIH 3T3, ABCG2 expressing vs non-expressing MDCK)
 |  |  |  |  | COc1ccc2c3c([nH]c2c1)[C@H](CC(C)C)N1C(=O)[C@H](CCC(=O)OC(C)(C)C)NC(=O)[C@@H]1C3 [Ko143] | 3.5 | do not affect the overall membrane fluidity | do not affect the overall membrane fluidity |  |  |  |  | 
slightly stimulated | 70.4 ± 7.3 µM | 18.9 ± 4 µM | 36.8 ± 4 µM | 19.1 ± 5 µM | CC(=O)OC/C=C(C)/C=C/C=C(C)/C=C/C1=C(C)CCCC1(C)C [Retinyl-acetate] | 6.3 |  | increased the DPH fluorescence anisotropy values significantly | increased the cellular accumulation of the fluorescent transporter substrates in a concentration dependent manner | increased the cellular accumulation of the fluorescent transporter substrates in a concentration dependent manner | did not have any effect | identical cytotoxicity profile | significantly lower effect
